What all share (type): biochemical
The target in one test is T1, PKC zeta (Homo sapiens, UniProt Q05513).
T1 sequence (Q05513 1-592): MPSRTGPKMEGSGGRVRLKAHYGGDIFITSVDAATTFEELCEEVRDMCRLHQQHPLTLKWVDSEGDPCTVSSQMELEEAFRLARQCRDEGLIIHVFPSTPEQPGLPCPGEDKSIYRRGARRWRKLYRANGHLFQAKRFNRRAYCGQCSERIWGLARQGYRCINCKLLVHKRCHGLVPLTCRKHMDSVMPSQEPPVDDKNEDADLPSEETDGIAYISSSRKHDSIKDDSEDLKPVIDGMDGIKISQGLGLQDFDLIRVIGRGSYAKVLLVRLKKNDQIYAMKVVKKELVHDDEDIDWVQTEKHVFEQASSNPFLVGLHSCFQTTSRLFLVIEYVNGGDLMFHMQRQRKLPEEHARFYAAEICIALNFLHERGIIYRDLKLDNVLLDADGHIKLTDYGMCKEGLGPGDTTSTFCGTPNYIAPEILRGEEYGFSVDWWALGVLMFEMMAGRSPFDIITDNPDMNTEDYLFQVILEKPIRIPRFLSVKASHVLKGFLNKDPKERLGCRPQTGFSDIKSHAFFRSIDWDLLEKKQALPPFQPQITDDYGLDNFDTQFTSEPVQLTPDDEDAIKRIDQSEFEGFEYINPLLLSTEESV
In words: Kinase screen: PKC zeta assay. The procedure: (§1) Generally, the same procedure was used for all assays. Since the total assay volume was 25.5 microliters, 0.5 microliters of inhibitors at 51× assay concentration were added to the plates before any other addition.
(§2) The basic procedure was to add 0.5 microliters inhibitor/control in DMSO to plate. Fifteen microliters of enzyme/substrate/buffer mix were added and incubated for 5 min. Ten microliters MgATP at the relevant concentration were added and incubated for 30 min. The assay was stopped by adding 5 microliters of 3% orthophosphoric acid. The assay was transferred to a p81 filter plate and read in a scintillation counter of 30 sec/well. Note that this assay procedure was not followed for MKK1, which instead involved a two-step assay, and PKC alpha, which required the addition of lipid vesicles.
PKC zeta assay: PKC zeta (5-20 mU diluted in 50 mM Tris pH 7.5, 0.1 mM EGTA, 0.1% b-mercaptoethanol, 1 mg/ml BSA, 100 μM Vanadate) was assayed against a substrate peptide ([…]) (SEQ ID NO: 34) in a final volume of 25.5 μl containing 50 mM Tris pH 7.5, 0.05% b-mercaptoethanol, 10 μM Vanadate, 300 μM substrate peptide, 10 mM magnesium acetate and 0.005 mM [33P-g-ATP] (50-1000 cpm/pmole) and incubated for 30 min at room temperature. Assays were stopped by addition of 5 μl of 0.5 M (3%) orthophosphoric acid and then harvested onto P81 Unifilter plates with a wash buffer of 50 mM orthophosphoric acid.

For the next test, the target named is T2, IR-HIS (Homo sapiens, UniProt P06213).
T2 construct: His
In words: Kinase screen: IR-HIS assay. The settings on record: 10 micromolar compound; for remaining activity at 10 µM: read-out: mean activity remaining (as a percentage of the original activity), IR-HIS. On the procedure:
as §1, §2
IR-HIS assay: IR-HIS (5-20 mU diluted in 50 mM Tris pH 7.5, 0.1 mM EGTA, 1 mg/ml BSA) was assayed against a substrate peptide ([…]) (SEQ ID NO: 36) in a final volume of 25.5 μl containing 50 mM Tris pH 7.5, 300 μM substrate peptide, 10 mM magnesium acetate and 0.02 mM [33P-g-ATP] (50-1000 cpm/pmole) and incubated for 30 min at room temperature. Assays were stopped by addition of 5 μl of 0.5 M (3%) orthophosphoric acid and then harvested onto P81 Unifilter plates with a wash buffer of 50 mM orthophosphoric acid.

For a further test, the target named is SYK (Homo sapiens, UniProt P43405). As to the kind of experiment: Kinase screen: SYK assay. The settings on record: 10 micromolar compound; for remaining activity at 10 µM: read-out: mean activity remaining (as a percentage of the original activity), SYK. On the procedure:
as §1, §2
SYK assay: SYK (5-20 mU diluted in 50 mM Tris pH 7.5, 0.1 mM EGTA, 1 mg/ml BSA) was assayed against a substrate peptide (Poly Glut Tyr) in a final volume of 25.5 μl containing 50 mM Tris pH 7.5, 1 mg/ml substrate peptide, 10 mM magnesium acetate and 0.02 mM [33P-g-ATP] (50-1000 cpm/pmole) and incubated for 30 min at room temperature. Assays were stopped by addition of 5 μl of 0.5 M (3%) orthophosphoric acid and then harvested onto P81 Unifilter plates with a wash buffer of 50 mM orthophosphoric acid.

Another test deals with T3, p38γ MAPK (Homo sapiens, UniProt P53778).
T3 sequence (P53778 1-367): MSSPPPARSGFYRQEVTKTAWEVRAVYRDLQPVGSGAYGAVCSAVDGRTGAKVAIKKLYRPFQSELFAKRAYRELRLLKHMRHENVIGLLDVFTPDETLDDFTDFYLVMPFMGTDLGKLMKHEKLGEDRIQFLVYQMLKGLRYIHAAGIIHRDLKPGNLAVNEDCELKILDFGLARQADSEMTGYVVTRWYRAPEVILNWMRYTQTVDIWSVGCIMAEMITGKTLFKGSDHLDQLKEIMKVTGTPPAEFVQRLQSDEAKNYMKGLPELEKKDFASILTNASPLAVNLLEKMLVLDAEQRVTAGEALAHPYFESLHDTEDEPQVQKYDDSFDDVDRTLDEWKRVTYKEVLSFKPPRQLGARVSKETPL
As to the kind of experiment: Kinase screen: SAPK 3/p38g assay. The procedure: as §1, §2
SAPK 3/p38g assay: SAPK 3/p38g (5-20 mU diluted in 50 mM Tris pH 7.5, 0.1 mM EGTA, 0.1 mM Na3VO4, 0.1% b-mercaptoethanol, 1 mg/ml BSA) was assayed against MBP in a final volume of 25.5 μl containing 25 mM Tris pH 7.5, 0.1 mM EGTA, 0.33 mg/ml MBP, 10 mM magnesium acetate and 0.005 mM [33P-g-ATP] (50-1000 cpm/pmole) and incubated for 30 min at room temperature. Assays were stopped by addition of 5 μl of 0.5 M (3%) orthophosphoric acid and then harvested onto P81 Unifilter plates with a wash buffer of 50 mM orthophosphoric acid.

Setting [1] is: 10 micromolar compound, read-out: mean activity remaining (as a percentage of the original activity), PKC zeta.
[2] abbreviates: 10 micromolar compound, read-out: mean activity remaining (as a percentage of the original activity), p38g MAPK.

Consider five compounds from US8067424B2, “Selective inhibitors for cyclin-dependent kinases” (Emory University, priority 2007, dated 2011).

Read-outs that look alike come from different tables or passages of the source.

T2 sequence (P06213 28-1382): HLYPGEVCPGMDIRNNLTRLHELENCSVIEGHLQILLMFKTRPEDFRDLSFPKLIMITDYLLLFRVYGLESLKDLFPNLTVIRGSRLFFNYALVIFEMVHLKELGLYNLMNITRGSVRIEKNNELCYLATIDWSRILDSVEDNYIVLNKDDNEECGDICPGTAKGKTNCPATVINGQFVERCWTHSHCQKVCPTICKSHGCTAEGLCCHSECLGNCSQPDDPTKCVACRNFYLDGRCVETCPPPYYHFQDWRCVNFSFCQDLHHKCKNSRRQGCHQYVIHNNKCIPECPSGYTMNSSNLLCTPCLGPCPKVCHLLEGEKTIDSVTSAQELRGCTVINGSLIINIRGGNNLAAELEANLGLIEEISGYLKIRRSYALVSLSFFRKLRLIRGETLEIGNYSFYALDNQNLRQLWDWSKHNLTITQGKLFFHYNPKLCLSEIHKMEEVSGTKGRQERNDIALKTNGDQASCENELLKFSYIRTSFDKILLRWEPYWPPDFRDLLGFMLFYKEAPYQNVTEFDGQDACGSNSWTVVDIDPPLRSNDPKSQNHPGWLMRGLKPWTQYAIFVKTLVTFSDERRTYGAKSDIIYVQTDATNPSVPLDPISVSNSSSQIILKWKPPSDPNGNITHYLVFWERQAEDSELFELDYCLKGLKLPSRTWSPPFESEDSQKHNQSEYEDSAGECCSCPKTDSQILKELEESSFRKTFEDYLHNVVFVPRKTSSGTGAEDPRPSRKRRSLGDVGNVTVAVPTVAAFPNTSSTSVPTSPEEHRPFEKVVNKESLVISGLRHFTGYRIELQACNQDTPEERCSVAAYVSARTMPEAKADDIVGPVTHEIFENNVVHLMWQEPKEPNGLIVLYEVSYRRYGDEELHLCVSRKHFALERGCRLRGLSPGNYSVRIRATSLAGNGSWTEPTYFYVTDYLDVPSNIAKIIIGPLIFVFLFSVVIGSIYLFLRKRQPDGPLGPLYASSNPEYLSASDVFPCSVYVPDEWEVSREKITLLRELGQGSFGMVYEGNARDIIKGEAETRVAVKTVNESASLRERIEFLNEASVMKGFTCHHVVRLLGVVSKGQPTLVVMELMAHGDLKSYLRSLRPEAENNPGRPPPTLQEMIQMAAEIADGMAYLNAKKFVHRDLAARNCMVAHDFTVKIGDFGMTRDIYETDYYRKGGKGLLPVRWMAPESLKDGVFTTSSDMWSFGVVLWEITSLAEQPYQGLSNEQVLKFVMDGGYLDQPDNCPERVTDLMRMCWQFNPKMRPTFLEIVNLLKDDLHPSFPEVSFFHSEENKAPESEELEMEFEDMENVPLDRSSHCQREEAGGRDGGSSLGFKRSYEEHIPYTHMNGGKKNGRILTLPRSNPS

For `CC(C)c1cnn2c(NCc3ccccc3F)cc(NCCCCCN)nc12` [ICEC-0232], the “mean activity remaining (as a percentage of the original activity), PKC zeta” value on PKC zeta (10 micromolar compound) came to 65%. The “mean activity remaining (as a percentage of the original activity), IR-HIS” value at IR-HIS is 58%. The “mean activity remaining (as a percentage of the original activity), SYK” value at SYK worked out at 84%. The “mean activity remaining (as a percentage of the original activity), p38g MAPK” value on p38γ MAPK (10 micromolar compound) is reported as 91%.

As usually defined, the remaining activity is the signal under treatment as a percentage of the control signal. On to `CC[C@H](CO)Nc1cc(NCc2ccccc2)n2ncc(C(C)C)c2n1` [ICEC0067], for which the remaining activity at 10 µM on PKC zeta (setting [1]) amounted to 76%; on IR-HIS, 78%; at SYK, 104%; at p38γ MAPK (setting [2]), 82%.

Take `CC(C)c1cnn2c(NCc3ccccc3)cc(NCCCCCCCN)nc12` [BS-181]: the remaining activity at 10 µM on PKC zeta (PKC zeta, 10 μM, read-out: Mean Remaining Enzyme Activity (%)) was 114%; at p38γ MAPK (p38γ MAPK, 10 μM, read-out: Mean Remaining Enzyme Activity (%)) it was 108%.

With `C=C[C@H](CO)Nc1cc(NCc2ccccc2)n2ncc(C(C)C)c2n1` [ICEC0065], the remaining activity at 10 µM at PKC zeta (setting [1]) was 84%; at IR-HIS it was 71%; on SYK it was 104%; on p38γ MAPK (setting [2]), 108%.

Turning to `CC(C)c1cnn2c(NCc3ccccc3)cc(N[C@@H](CO)[C@H](O)CO)nc12` [ICEC0318, (3S)-3-(7-(Benzylamino)-3-isopropylpyrazolo[1,5-a]pyrimidin-5-ylamino)butane-1,2,4-triol], the remaining activity at 10 µM was 64% at PKC zeta (setting [1]), 70% on IR-HIS, 120% at SYK and 112% at p38γ MAPK (setting [2]).
